According to patent US8093253B2, “Leukotriene B4 inhibitors” (Hoffmann-La Roche Inc., priority 2008, dated 2012):

System: not given
Assay: not given
Settings: not given

**Q.** With `CCS(=O)(=O)c1cc(OCCCCCCc2cccc(OCCCC(=O)O)c2CCC(=O)O)cc(-c2ccc3c(c2)OCO3)c1` [Example 47, 4-[3-[6-(3-Benzo[1,3]dioxol-5-yl-5-ethanesulfonyl-phenoxy)-hexyl]-2-(2-carboxy-ethyl)-phenoxy]-butyric Acid] as the molecule, how does the melting point read?
**A.** Its melting point is 134 to 135 °C.

System: BLT1 and BLT2 receptors (HL-60 cells)
Assay: Ca2+ flux assay for LTB4 antagonist assay (HL-60 FLIPR)
Format: cell-based, Human
Settings: Retinoic acid induced HL-60 cells, inhibition of LTB4-induced Ca2+ flux, 30 min preincubation; read-out: LTB4 antagonism (HL-60 FLIPR) IC50
Experimental: Ca^2+ Flux Assay for LTB4 Antagonist Assay
Human leukemia HL-60 cells endogenously expressing BLT1 and BLT2 receptors were cultured in RPMI-1640 medium supplemented with 20% fetal bovine serum, 2 mM glutamine, 100 U/mL penicillin and 100 ug/mL streptomycin.
Seventy two hours prior to experiment cells are counted using ViaCount reagent, centrifuged and resuspended at 2.0×10^5 cells/mL density with the complete growth media containing 1 μM Retinoic Acid (Sigma).
On a day of the experiment loading buffer (Calcium-3 Assay Kit, Molecular Devices) was prepared by dissolving the contents of one vial (Express Kit) into 500 mL Hank's Balanced Salt Solution containing 20 mM HEPES and 5 mM probenecid. Equal volume of the loading buffer was mixed with the replacement buffer (Hank's Balanced Salt Solution containing 20 mM HEPES, 0.05% BSA and 5 mM probenecid). Retinoic Acid induced HL-60 cells were counted using ViaCount reagent, centrifuged and resuspended at 2.0×10^6 cells/mL density with the loading buffer/replacement buffer, dispensed into 384 well black/clear microplates (Falcon)(25 μL/well) and placed in a 37° C./5% CO2 incubator for 1 hour.
During the incubation, test compounds were prepared at 6× the desired concentration in HBSS/20 mM HEPES/0.05% BSA as well as LTB4 (Biomol) was prepared at 2.2× concentration in HBSS/20 mM HEPES/0.5% BSA buffer.
After the incubation, both the cell and compound plates were brought to the FLIPR and 5 μL of the diluted compounds were transferred to the cell plates by the FLIPR. Plates were then incubated for 30 min at room temperature. After the ½ hour incubation, plates were returned to the FLIPR and 25 μL of 2.2×LTB4 was added to the cell plates. During the assay, fluorescence readings were taken simultaneously from all 384 wells of the cell plate every 1.5 seconds. Five readings were taken to establish a stable baseline, then 25 μL (LTB4) of sample was rapidly and simultaneously added to each well of the cell plate. The fluorescence was continuously monitored before, during and after sample addition for a total elapsed time of 100 seconds. Responses (increase in peak fluorescence) in each well following agonist addition was determined. The initial fluorescence reading from each well, prior to ligand stimulation, was used a zero baseline value for the data from that well. The responses are expressed as % inhibition of the neutral control (neural control: wells that received buffer plus DMSO but no test compound).

**Q.** For `CS(=O)(=O)c1cc(OCCCCCCc2cccc(OCCCC(=O)O)c2CCC(=O)O)cc(-c2ccc(O)cc2)c1` [Example 5, 4-{2-(2-Carboxy-ethyl)-3-[6-(4′-hydroxy-5-methanesulfonyl-biphenyl-3-yloxy)-hexyl]-phenoxy}-butyric Acid], which IC50 is on record?
**A.** The IC50 was 1.22 nM.

**Q.** Which IC50 does the source give for `CS(=O)(=O)c1cc(OCCCCCCc2cccc(OCCCC(=O)O)c2CCC(=O)O)cc(-c2ccc(F)cc2)c1` [Example 8, 4-{2-(2-Carboxy-ethyl)-3-[6-(4′-fluoro-5-methanesulfonyl-biphenyl-3-yloxy)-hexyl]-phenoxy}-butyric Acid] here?
**A.** Its IC50 is 0.38 nM.

**Q.** For `Cc1ccc(-c2cc(OCCCCCCc3cccc(OCCCC(=O)O)c3CCC(=O)O)cc(S(C)(=O)=O)c2)cc1F` [Example 11, 4-{2-(2-Carboxy-ethyl)-3-[6-(3′-fluoro-5-methanesulfonyl-4′-methyl-biphenyl-3-yloxy)-hexyl]-phenoxy}-butyric Acid], which IC50 is on record?
**A.** Its IC50 is 0.32 nM.

**Q.** Which IC50 does the source give for `CS(=O)(=O)c1cc(OCCCCCCc2cccc(OCCCC(=O)O)c2CCC(=O)O)cc(-c2ccsc2)c1` [Example 12, 4-{2-(2-Carboxy-ethyl)-3-[6-(3-methanesulfonyl-5-thiophen-3-yl-phenoxy)-hexyl]-phenoxy}-butyric Acid] here?
**A.** Its IC50 is 0.44 nM.

**Q.** Which IC50 does the source give for `CCc1ccc(-c2cc(OCCCCCCc3cccc(OCCCC(=O)O)c3CCC(=O)O)cc(S(C)(=O)=O)c2)cc1` [Example 13, 4-{2-(2-Carboxy-ethyl)-3-[6-(4′-ethyl-5-methanesulfonyl-biphenyl-3-yloxy)-hexyl]-phenoxy}-butyric Acid] here?
**A.** Its IC50 is 0.91 nM.

**Q.** With `CS(=O)(=O)c1cc(OCCCCCCc2cccc(OCCCC(=O)O)c2CCC(=O)O)cc(-c2cscn2)c1` [Example 21, 4-{2-(2-Carboxy-ethyl)-3-[6-(3-methanesulfonyl-5-thiazol-4-yl-phenoxy)-hexyl]-phenoxy}-butyric Acid] as the molecule, how does the IC50 read?
**A.** Its IC50 is 261 nM.

**Q.** For `CS(=O)(=O)c1cc(OCCCCCCc2cccc(OCCCC(=O)O)c2CCC(=O)O)cc(Oc2ccc(Cl)cc2)c1` [Example 23, 4-(2-(2-Carboxy-ethyl)-3-{6-[3-(4-chloro-phenoxy)-5-methanesulfonyl-phenoxy]-hexyl}-phenoxy)-butyric Acid], which IC50 is on record?
**A.** Its IC50 is 361 nM.

**Q.** With `CS(=O)(=O)c1cc(Nc2ccccc2)cc(OCCCCCCc2cccc(OCCCC(=O)O)c2CCC(=O)O)c1` [Example 26, 4-{2-(2-Carboxy-ethyl)-3-[6-(3-methanesulfonyl-5-phenylamino-phenoxy)-hexyl]-phenoxy}-butyric Acid] as the molecule, how does the IC50 read?
**A.** Its IC50 is 47.1 nM.

**Q.** For `CS(=O)(=O)c1cc(OCCCCCCc2cccc(OCCCC(=O)O)c2CCC(=O)O)cc(-c2cccc(F)c2)c1` [Example 27, 4-{2-(2-Carboxy-ethyl)-3-[6-(3′-fluoro-5-methanesulfonyl-biphenyl-3-yloxy)-hexyl]-phenoxy}-butyric Acid], which IC50 is on record?
**A.** Its IC50 is 0.9 nM.

**Q.** With `CS(=O)(=O)c1cc(OCCCCCCc2cccc(OCCCC(=O)O)c2CCC(=O)O)cc(-c2ccccc2)c1` [Example 28, 4-{2-(2-Carboxy-ethyl)-3-[6-(5-methanesulfonyl-biphenyl-3-yloxy)-hexyl]-phenoxy}-butyric Acid] as the molecule, how does the IC50 read?
**A.** Its IC50 is 0.38 nM.

**Q.** Which IC50 does the source give for `COc1ccc(-c2cc(OCCCCCCc3cccc(OCCCC(=O)O)c3CCC(=O)O)cc(S(C)(=O)=O)c2)cc1` [Example 29, 4-{2-(2-Carboxy-ethyl)-3-[6-(5-methanesulfonyl-4′-methoxy-biphenyl-3-yloxy)-hexyl]-phenoxy}-butyric Acid] here?
**A.** The IC50 was 0.12 nM.

**Q.** For `CS(=O)(=O)c1cc(OCCCCCCc2cccc(OCCCC(=O)O)c2CCC(=O)O)cc(-c2ccc3c(c2)OCO3)c1` [Example 40, 4-[3-[6-(3-Benzo[1,3]dioxol-5-yl-5-methanesulfonyl-phenoxy)-hexyl]-2-(2-carboxy-ethyl)-phenoxy]-butyric Acid], which IC50 is on record?
**A.** Its IC50 is 0.09 nM.

**Q.** With `CS(=O)(=O)c1cc(OCCCCCCc2cccc(OCCCC(=O)O)c2CCC(=O)O)cc(-c2ccc3c(c2)OCCO3)c1` [Example 41, 4-(2-(2-Carboxy-ethyl)-3-{6-[3-(2,3-dihydro-benzo[1,4]dioxin-6-yl)-5-methanesulfonyl-phenoxy]-hexyl}-phenoxy)-butyric Acid] as the molecule, how does the IC50 read?
**A.** Its IC50 is 0.47 nM.

**Q.** Which IC50 does the source give for `CS(=O)(=O)c1cc(OCCCCCCc2cccc(OCCCC(=O)O)c2CCC(=O)O)cc(-c2ccc3scnc3c2)c1` [Example 45, 4-[3-[6-(3-Benzothiazol-5-yl-5-methanesulfonyl-phenoxy)-hexyl]-2-(2-carboxy-ethyl)-phenoxy]-butyric Acid] here?
**A.** The IC50 was 0.2 nM.

**Q.** With `CS(=O)(=O)c1cc(OCCCCCCc2cccc(OCCCC(=O)O)c2CCC(=O)O)cc(-c2ccc3c(c2)OC(F)(F)O3)c1` [Example 46, 4-(2-(2-Carboxy-ethyl)-3-{6-[3-(2,2-difluoro-benzo[1,3]dioxol-5-yl)-5-methanesulfonyl-phenoxy]-hexyl}-phenoxy)-butyric Acid] as the molecule, how does the IC50 read?
**A.** Its IC50 is 0.24 nM.

**Q.** With `CCS(=O)(=O)c1cc(OCCCCCCc2cccc(OCCCC(=O)O)c2CCC(=O)O)cc(-c2ccc3c(c2)OCO3)c1` [Example 47, 4-[3-[6-(3-Benzo[1,3]dioxol-5-yl-5-ethanesulfonyl-phenoxy)-hexyl]-2-(2-carboxy-ethyl)-phenoxy]-butyric Acid] as the molecule, how does the IC50 read?
**A.** Its IC50 is 0.27 nM.

**Q.** For `CCS(=O)(=O)c1cc(OCCCCCCc2cccc(OCCCC(=O)O)c2CCC(=O)O)cc(-c2ccc(F)cc2)c1` [Example 51, 4-[2-(2-Carboxy-ethyl)-3-[6-(5-ethanesulfonyl-4′-fluoro-biphenyl-3-yloxy)-hexyl]-phenoxy]-butyric Acid], which IC50 is on record?
**A.** Its IC50 is 2.8 nM.

**Q.** Which IC50 does the source give for `CCS(=O)(=O)c1cc(OCCCCCCc2cccc(OCCCC(=O)O)c2CCC(=O)O)cc(-c2ccsc2)c1` [Example 52, 4-[2-(2-Carboxy-ethyl)-3-[6-(3-ethanesulfonyl-5-thiophen-3-yl-phenoxy)-hexyl]-phenoxy]-butyric Acid] here?
**A.** Its IC50 is 1.04 nM.

**Q.** With `CCCS(=O)(=O)c1cc(OCCCCCCc2cccc(OCCCC(=O)O)c2CCC(=O)O)cc(-c2ccc(F)cc2)c1` [Example 55, 4-[2-(2-Carboxy-ethyl)-3-[6-(5-(propane-1-sulfonyl)-4′-fluoro-biphenyl-3-yloxy)-hexyl]-phenoxy]-butyric Acid] as the molecule, how does the IC50 read?
**A.** Its IC50 is 63.8 nM.

**Q.** For `CC(C)S(=O)(=O)c1cc(OCCCCCCc2cccc(OCCCC(=O)O)c2CCC(=O)O)cc(-c2ccc(F)cc2)c1` [Example 60, 4-[2-(2-Carboxy-ethyl)-3-[6-(5-(propane-2-sulfonyl)-4′-fluoro-biphenyl-3-yloxy)-hexyl]-phenoxy]-butyric Acid], which IC50 is on record?
**A.** Its IC50 is 15.3 nM.
